Results reported in US12435044B2, “Pyridazinone herbicides and pyridazinone intermediates used to prepare a herbicide” (FMC Corporation, priority 2018, dated 2025).

Experiments:
Format in all cases: in vivo
[1] = system: large crabgrass (DIGSA; Digitaria sanguinalis); assay: Test H postemergence, mixtures of Cpd. No. 20 with atrazine or glyphosate
Source text: (§1) This test evaluated the effect of mixtures of Cpd. No. 20 with atrazine or glyphosate on several plant species. Seeds of plant species selected from corn (ZEAMD; Zea mays, cv. ‘Pioneer 1184’), soybean (GLXMA; Glycine max, cv. Pioneer 35T58), giant foxtail (SETFA; Setaria faberi), Surinamgrass (BRADC; Brachiaria decumbens), fall panicum (PANDI; Panicum dichotomiflorum), velvetleaf (ABUTH; Abutilon threophrasti), mare's tail (ERICA; Conyza canadensis), barnyardgrass (ECHCG; Echinochloa crus-galli), large crabgrass (DIGSA; Digitaria sanguinalis), palmer amaranth (AMAPA; Amaranthus palmeri), common waterhemp (AMATU; Amaranthus rudis), E. black nightshade (SOLPT; Solanum ptycanthum), and common ragweed (AMBEL; Ambrosia artemisiifolia) were planted in pots containing Redi-Earth® planting medium (Scotts Company, 14111 Scottslawn Road, Marysville, Ohio 43041) comprising spaghnum peat moss, vermiculite, wetting agent and starter nutrients and treated postemergence using test chemicals formulated in a non-phytotoxic solvent mixture which included a surfactant. Plants ranged in height from 2 to 10 cm and were in the one- to two-leaf stage for the postemergence treatment. Treated plants and untreated controls were maintained in a greenhouse for approximately 14 d, after which time all treated plants were compared to untreated controls and visually evaluated for injury. Plant response ratings, summarized in Tables H1 & H2, are based on a 0 to 100 scale where 0 is no effect and 100 is complete control. A dash (-) response means no test result. Test results are presented as a mean of 4 reps.

[2] = system: common waterhemp (AMATU; Amaranthus rudis); assay: as above
Source text: as §1

[3] = system: mare's tail (ERICA; Conyza canadensis); assay: as above
Source text: as §1

[4] = system: E. black nightshade (SOLPT; Solanum ptycanthum); assay: as above
Source text: as §1

[5] = system: fall panicum (PANDI; Panicum dichotomiflorum); assay: as above
Source text: as §1

[6] = system: common ragweed (AMBEL; Ambrosia artemisiifolia); assay: as above
Source text: as §1

[7] = system: Surinamgrass (BRADC; Brachiaria decumbens); assay: as above
Source text: as §1

[8] = system: palmer amaranth (AMAPA; Amaranthus palmeri); assay: as above
Source text: as §1

[9] = system: giant foxtail (SETFA; Setaria faberi); assay: as above
Source text: as §1

[10] = system: soybean (GLXMA; Glycine max, cv. Pioneer 35T58); assay: as above
Source text: as §1

[11] = system: corn (ZEAMD; Zea mays, cv. ‘Pioneer 1184’); assay: as above
Source text: as §1

[12] = system: winter wheat (TRZAW; Triticum aetivum, cv. Arezzo); assay: Test of Tables L1 to L3, postemergence, mixtures of Cpd. No. 20 with benoxacor, isoxadifen-ethyl, or cloquintocet-mexyl; conditions: for Plant response rating (0 to 100 scale) TRZAW: approx. 14 d
Source text: (§2) This test evaluated the effect of mixtures of Cpd. No. 20 with benoxacor, isoxadifen-ethyl, or cloquintocet-mexyl on several plant species. Seeds of plant species selected from corn (ZEAMD; Zea mays, cv. ‘Pioneer 1184’), soybean (GLXMA; Glycine max, cv. Pioneer 35T58), winter wheat (TRZAW; Triticum aetivum, cv. Arezzo), rice (ORYSS; Oryza sativa, cv. M202), and giant foxtail (SETFA; Setaria faberi) were planted in pots containing Redi-Earth® planting medium (Scotts Company, 14111 Scottslawn Road, Marysville, Ohio 43041) comprising spaghnum peat moss, vermiculite, wetting agent and starter nutrients and treated postemergence using test chemicals formulated in a non-phytotoxic solvent mixture which included a surfactant. Plants ranged in height from 7 to 10 cm and were in the one- to two-leaf stage for the postemergence treatment. Treated plants and untreated controls were maintained in a greenhouse for approximately 14 d, after which time all treated plants were compared to untreated controls and visually evaluated for injury. Plant response ratings, summarized in Tables L1 to L3, are based on a 0 to 100 scale where 0 is no effect and 100 is complete control. A dash (-) response means no test result. Test results are presented as a mean of 4 reps.

[13] = system: rice (ORYSS; Oryza sativa, cv. M202); assay: as above; conditions: for Plant response rating (0 to 100 scale) ORYSS: approx. 14 d
Source text: as §2

[14] = system: giant foxtail (SETFA; Setaria faberi); assay: as above; conditions: for Plant response rating (0 to 100 scale) SETFA: approx. 14 d
Source text: as §2

[15] = system: soybean (GLXMA; Glycine max, cv. Pioneer 35T58); assay: as above; conditions: for Plant response rating (0 to 100 scale) GLXMA: approx. 14 d
Source text: as §2

[16] = system: corn (ZEAMD; Zea mays, cv. ‘Pioneer 1184’); assay: as above; conditions: for Plant response rating (0 to 100 scale) ZEAMD: approx. 14 d
Source text: as §2

[17] = Cpd. No. 20 alone 125 g a.i./ha
[18] = Cpd. No. 20 alone 250 g a.i./ha
[19] = Cpd. No. 20 alone 375 g a.i./ha

Cc1ccc2ccc(C)c(-c3c(O)c(Cl)nn(C)c3=O)c2c1 [Cpd. No. 20, 6-chloro-4-(2,7-dimethyl-1-naphthalenyl)-5-hydroxy-2-methyl-3(2H)-pyridazinone]
Observed result (plant response rating), DIGSA ([1]; applied alone at 31 g a.i./ha): 34 | Observed result (plant response rating), DIGSA ([1]; applied alone at 62 g a.i./ha): 29 | Observed result (plant response rating), DIGSA ([1]; applied alone at 125 g a.i./ha): 36 | Observed result (plant response rating), AMATU ([2]; applied alone at 31 g a.i./ha): 70 | Observed result (plant response rating), AMATU ([2]; applied alone at 62 g a.i./ha): 80 | Observed result (plant response rating), AMATU ([2]; applied alone at 125 g a.i./ha): 80 | Observed result (plant response rating), ERICA ([3]; applied alone at 31 g a.i./ha): 85 | Observed result (plant response rating), ERICA ([3]; applied alone at 62 g a.i./ha): 85 | Observed result (plant response rating), ERICA ([3]; applied alone at 125 g a.i./ha): 88 | Observed result (plant response rating), SOLPT ([4]; applied alone at 31 g a.i./ha): 86 | Observed result (plant response rating), SOLPT ([4]; applied alone at 62 g a.i./ha): 93 | Observed result (plant response rating), SOLPT ([4]; applied alone at 125 g a.i./ha): 95 | Observed result (plant response rating), PANDI ([5]; applied alone at 31 g a.i./ha): 73 | Observed result (plant response rating), PANDI ([5]; applied alone at 62 g a.i./ha): 84 | Observed result (plant response rating), PANDI ([5]; applied alone at 125 g a.i./ha): 89 | Observed result (plant response rating), AMBEL ([6]; applied alone at 31 g a.i./ha): 89 | Observed result (plant response rating), AMBEL ([6]; applied alone at 62 g a.i./ha): 94 | Observed result (plant response rating), AMBEL ([6]; applied alone at 125 g a.i./ha): 98 | Observed result (plant response rating), BRADC ([7]; applied alone at 31 g a.i./ha): 73 | Observed result (plant response rating), BRADC ([7]; applied alone at 62 g a.i./ha): 84 | Observed result (plant response rating), BRADC ([7]; applied alone at 125 g a.i./ha): 93 | Observed result (plant response rating), AMAPA ([8]; applied alone at 31 g a.i./ha): 10 | Observed result (plant response rating), AMAPA ([8]; applied alone at 62 g a.i./ha): 36 | Observed result (plant response rating), AMAPA ([8]; applied alone at 125 g a.i./ha): 54 | Observed result (plant response rating), SETFA ([9]; applied alone at 31 g a.i./ha): 71 | Observed result (plant response rating), SETFA ([9]; applied alone at 62 g a.i./ha): 79 | Observed result (plant response rating), SETFA ([9]; applied alone at 125 g a.i./ha): 80 | Observed result (plant response rating), GLXMA ([10]; applied alone at 31 g a.i./ha): 30 | Observed result (plant response rating), GLXMA ([10]; applied alone at 62 g a.i./ha): 21 | Observed result (plant response rating), GLXMA ([10]; applied alone at 125 g a.i./ha): 18 | Observed result (plant response rating), ZEAMD ([11]; applied alone at 31 g a.i./ha): 0 | Observed result (plant response rating), ZEAMD ([11]; applied alone at 62 g a.i./ha): 0 | Observed result (plant response rating), ZEAMD ([11]; applied alone at 125 g a.i./ha): 0 | TRZAW plant response rating, 0 to 100 scale ([12]; 125 g a.i./ha): 28 | TRZAW plant response rating, 0 to 100 scale ([12]; 250 g a.i./ha): 36 | TRZAW plant response rating, 0 to 100 scale ([12]; 375 g a.i./ha): 39 | Plant response rating (0 to 100 scale) TRZAW [12, 17]: 28 | Plant response rating (0 to 100 scale) TRZAW [12, 18]: 36 | Plant response rating (0 to 100 scale) TRZAW [12, 19]: 39 | ORYSS plant response rating, 0 to 100 scale ([13]; 125 g a.i./ha): 5 | ORYSS plant response rating, 0 to 100 scale ([13]; 250 g a.i./ha): 18 | ORYSS plant response rating, 0 to 100 scale ([13]; 375 g a.i./ha): 23 | Plant response rating (0 to 100 scale) ORYSS [13, 17]: 5 | Plant response rating (0 to 100 scale) ORYSS [13, 18]: 18 | Plant response rating (0 to 100 scale) ORYSS [13, 19]: 23 | SETFA plant response rating, 0 to 100 scale ([14]; 125 g a.i./ha): 84 | SETFA plant response rating, 0 to 100 scale ([14]; 250 g a.i./ha): 88 | SETFA plant response rating, 0 to 100 scale ([14]; 375 g a.i./ha): 90 | Plant response rating (0 to 100 scale) SETFA [14, 17]: 84 | Plant response rating (0 to 100 scale) SETFA [14, 18]: 88 | Plant response rating (0 to 100 scale) SETFA [14, 19]: 90 | GLXMA plant response rating, 0 to 100 scale ([15]; 125 g a.i./ha): 15 | GLXMA plant response rating, 0 to 100 scale ([15]; 250 g a.i./ha): 29 | GLXMA plant response rating, 0 to 100 scale ([15]; 375 g a.i./ha): 39 | Plant response rating (0 to 100 scale) GLXMA [15, 17]: 15 | Plant response rating (0 to 100 scale) GLXMA [15, 18]: 29 | Plant response rating (0 to 100 scale) GLXMA [15, 19]: 39 | ZEAMD plant response rating, 0 to 100 scale ([16]; 125 g a.i./ha): 8 | ZEAMD plant response rating, 0 to 100 scale ([16]; 250 g a.i./ha): 1 | ZEAMD plant response rating, 0 to 100 scale ([16]; 375 g a.i./ha): 34 | Plant response rating (0 to 100 scale) ZEAMD [16, 17]: 8 | Plant response rating (0 to 100 scale) ZEAMD [16, 18]: 1 | Plant response rating (0 to 100 scale) ZEAMD [16, 19]: 34
